Target: T1, Py235 (reticulocyte binding protein), nucleotide binding domain NBD94 (Plasmodium yoelii, UniProt Q7RPU0)
T1 construct: gene PY01365
Assay: fluorescence correlation spectroscopy titration

Substance	Kd [µM]
EDA-ADP ATTO-647N	331 ± 1.8
EDA-ATP ATTO-647N	228 ± 2.3

— publication PMC2818847 (PLoS ONE, 2010)
